In patent US8153818B2, “Triazolyl phenyl benzenesulfonamides” (ChemoCentryx, Inc., priority 2006, dated 2012) one finds IC50 data, which are given here for 18 compounds.

Some results are limits rather than exact numbers.

The experiment deals with T1, CCR9 (Homo sapiens, UniProt P51686).
T1 construct: chemokine expressing cells (such as THP-1 cells for CCR2 assay or MOLT-4 cells for CCR9 assay); host or cells: MOLT-4
T1 sequence (P51686 1-369): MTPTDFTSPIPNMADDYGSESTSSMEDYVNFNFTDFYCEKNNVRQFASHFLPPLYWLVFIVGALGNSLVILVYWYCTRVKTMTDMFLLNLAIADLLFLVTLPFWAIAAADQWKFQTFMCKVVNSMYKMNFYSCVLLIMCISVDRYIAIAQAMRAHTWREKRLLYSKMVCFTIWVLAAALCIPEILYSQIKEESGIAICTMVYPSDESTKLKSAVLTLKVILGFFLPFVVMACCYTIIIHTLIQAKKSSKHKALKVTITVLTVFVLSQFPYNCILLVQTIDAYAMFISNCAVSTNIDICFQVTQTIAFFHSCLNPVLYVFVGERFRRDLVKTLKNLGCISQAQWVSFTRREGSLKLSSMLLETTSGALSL
Nature of the experiment: CCR9 activity in one of the chemotaxis, binding or calcium mobilization assays. Type of experiment: cell-based. As to conditions: assay not specified per compound. The procedure: Conventional migration assay was used to determine the efficacy of potential receptor antagonists in blocking migration mediated through chemokines (such as CCR2 or CCR9). This assay was routinely performed using the ChemoTX® microchamber system with a 5-μm pore-sized polycarbonate membrane. To begin such an assay, chemokine expressing cells (such as THP-1 cells for CCR2 assay or MOLT-4 cells for CCR9 assay) were harvested by centrifugation of cell suspension at 1000 RPM on a GS-6R Beckman centrifuge. The cell pellet was resuspended in chemotaxis buffer (HBSS with 0.1% BSA) at 10×10^6 cells/mL for CCR2 assay (5×10^6 cells/mL for CCR9 assay). Test compounds at desired concentrations were prepared from 10 mM stock solutions by serial dilutions in chemotaxis buffer. An equal volume of cells and compounds were mixed and incubated at room temperature for 15 minutes. Afterwards, 20 μL of the mixture was transferred onto the porous membrane of a migration microchamber, with 29 μL of chemokine ligand (0.1 nM chemokine MCP-1 protein for CCR2 assay or […] chemokine TECK protein for CCR9 assay) placed at the lower chamber. Following an incubation at 37° C. (90-minute for CCR2; 150-minute for CCR9), during which cells migrated against the chemokine gradient, the assay was terminated by removing the cell drops from atop the filter. To quantify cells migrated across the membrane, 5 μL of 7×CyQUANT® solution was added to each well in the lower chamber, and the fluorescence signal measured on a Spectrafluor Plus fluorescence plate reader (TECAN, Durham, N.C.). The degree of inhibition was determined by comparing migration signals between compound-treated and untreated cells. IC50 calculation was further performed by non-linear squares regression analysis using Graphpad Prism (Graphpad Software, San Diego, Calif.).
Calcium flux assay measures an increase in intracellular calcium following ligand-induced receptor activation. In the screen of chemokine antagonists, it was used as a secondary assay carried out on a FLIPR® machine (Molecular Devices, Mountain View, Calif.). To begin an assay, chemokine expressing cells (such as THP-1 cells for CCR2 assay or MOLT-4 cells for CCR9 assay) were harvested by centrifugation of cell suspension, and resuspended to 1.5×10^6 cells/mL in HBSS (with 1% fetal calf serum). Cells were then labeled with a calcium indicator dye Fluo-4 AM for 45 minutes at 37° C. with gentle shaking. Following incubation, cells were pelletted, washed once with HBSS and resuspended in the same buffer at a density of 1.6×10^6 cells/mL. One hundred microliters of labeled cells were mixed with 10 μL of test compound at the appropriate concentrations on an assay plate. Chemokine protein (MCP-1 at a final concentration of 0.1 nM for CCR2 assay or TECK at a final concentration of 25 nM for CCR9 assay) to activate the receptor. The degree of inhibition was determined by comparing calcium signals between compound-treated and untreated cells. IC50 calculations were further performed by non-linear squares regression analysis using Graphpad Prism (Graphpad Software, San Diego, Calif.). […]
In the tables below, structures and activity are provided for representative compounds described herein. Activity is provided as follows for either or both of the chemotaxis assay and/or calcium mobilization assays, described above.
(In general: Calcium flux is commonly read through the fluorescence of an indicator in the cells.)
By IC50 is commonly meant the point on the concentration scale where inhibition reaches its midpoint. For the compound `CCn1c(C)nnc1-c1cc(Cl)ccc1NS(=O)(=O)c1ccc(C(C)(C)C)cc1` [Compound 5, 4-tert-butyl-N-(4-chloro-2-(4-ethyl-5-methyl-4H-1,2,4-triazol-3-yl)phenyl)benzenesulfonamide], the IC50 was less than 1000 nM.

Take `CC(C)(C)c1ccc(S(=O)(=O)Nc2cc(F)c(F)cc2-c2nncn2[C@H]2CCNC2)cc1` [Compound 37]: the concentration for half-maximal inhibition (IC50) was less than 1000 nM.

Regarding `CCn1c(-c2cc(Cl)ccc2NS(=O)(=O)c2ccc(C(C)(C)C)cc2)nnc1C(C)C` [Compound 43, 4-tert-butyl-N-(4-chloro-2-(4-ethyl-5-isopropyl-4H-1,2,4-triazol-3-yl)phenyl)benzenesulfonamide], the IC50 was less than 1000 nM.

For `CC(C)(C)c1ccc(S(=O)(=O)Nc2cc(F)c(Cl)cc2-c2nncn2C2CNC2)cc1` [Compound 85], the IC50 is less than 1000 nM.

For the compound `CC(C)n1cnnc1-c1cc(Cl)c(F)cc1NS(=O)(=O)c1ccc(C(C)(C)C)cc1` [Compound 78, 4-tert-butyl-N-(4-chloro-5-fluoro-2-(4-isopropyl-4H-1,2,4-triazol-3-yl)phenyl)benzenesulfonamide], the half-maximal inhibitory concentration (IC50) is less than 1000 nM.

As for `CC(C)n1c(-c2cc(Cl)c(F)cc2NS(=O)(=O)c2ccc(C(C)(C)C)cc2)nnc1C1CCOC1` (stereo not drawn) [Compound 82], the IC50 was less than 1000 nM.

For the compound `Cc1nnc(-c2cc(Cl)ccc2NS(=O)(=O)c2ccc(C(C)(C)C)cc2)n1C1CCN(C(N)=O)CC1` [Compound 94], the IC50 was less than 1000 nM.

For the compound `Cn1c(-c2cc(Cl)c(F)cc2NS(=O)(=O)c2ccc(C(C)(C)C)cc2)nnc1[C@H]1CCCN1` [Compound 140], the IC50 is less than 1000 nM.

For `Cn1c(CNC2CC2)nnc1-c1cc(Cl)c(F)cc1NS(=O)(=O)c1ccc(C(C)(C)C)cc1` [Compound 50, 4-tert-butyl-N-(4-chloro-2-(5-((cyclopropylamino)methyl)-4-methyl-4H-1,2,4-triazol-3-yl)-5-fluorophenyl)benzenesulfonamide], the concentration for half-maximal inhibition (IC50) was less than 1000 nM.

On to `Cc1nnc(-c2cc(Cl)ccc2NS(=O)(=O)c2ccc(C(C)(C)C)cc2)n1[C@H]1CCCNC1` [Compound 114], for which the IC50 was less than 1000 nM.

On to `CC(C)n1cnnc1-c1cc(Cl)ccc1NS(=O)(=O)c1ccc(C(C)(C)C)cc1` [Compound 1, 4-tert-butyl-N-(4-chloro-2-(4-isopropyl-4H-1,2,4-triazol-3-yl)phenyl)benzenesulfonamide], for which the IC50 is less than 1000 nM.

In the case of `Cn1c(CN2CCCC2)nnc1-c1cc(Cl)c(F)cc1NS(=O)(=O)c1ccc(C(C)(C)C)cc1` [Compound 121], the IC50 is less than 1000 nM.

For `Cn1c(-c2cc(Cl)ccc2NS(=O)(=O)c2ccc(C(C)(C)C)cc2)nnc1C1CCNCC1` [Compound 70], the IC50 was less than 1000 nM.

For the compound `Cc1nnc(-c2cc(Cl)ccc2NS(=O)(=O)c2ccc(C(C)(C)C)cc2)n1C1CCCC1` [Compound 14, 4-tert-butyl-N-(4-chloro-2-(4-cyclopentyl-5-methyl-4H-1,2,4-triazol-3-yl)phenyl)benzenesulfonamide], the IC50 was less than 1000 nM.

As for `Cn1c(CC(C)(C)O)nnc1-c1cc(Cl)c(F)cc1NS(=O)(=O)c1ccc(C(C)(C)C)cc1` [Compound 65, 4-tert-butyl-N-(4-chloro-5-fluoro-2-(5-(2-hydroxy-2-methylpropyl)-4-methyl-4H-1,2,4-triazol-3-yl)phenyl)benzenesulfonamide], the IC50 was less than 1000 nM.

`CNCc1nnc(-c2cc(Cl)c(F)cc2NS(=O)(=O)c2ccc(C(C)(C)C)cc2)n1C` [Compound 45, 4-tert-butyl-N-(4-chloro-5-fluoro-2-(4-methyl-5-((methylamino)methyl)-4H-1,2,4-triazol-3-yl)phenyl)benzenesulfonamide]: the IC50 was less than 1000 nM.

As to `Cn1c(-c2cc(Cl)c(F)cc2NS(=O)(=O)c2ccc(C(C)(C)C)cc2)nnc1C1CCCNC1` (stereo not drawn) [Compound 145], the IC50 is less than 1000 nM.

Consider `CCc1nnc(-c2cc(C(=O)OC)ccc2NS(=O)(=O)c2ccc(C(C)(C)C)cc2)n1C` [Compound 133, methyl 4-(4-tert-butylphenylsulfonamido)-3-(5-ethyl-4-methyl-4H-1,2,4-triazol-3-yl)benzoate], for which the IC50 is less than 1000 nM.
